Drawing on the Deep4Chem optical property database, this text covers absorption maximum for 44 compounds.

The data set in a line: solvent given as SMILES.

Where “and” joins values, the source holds several entries; their conditions need not be identical. Identical values can stand only once.

Regarding `CN(C)c1ccc2nc(/C=C/c3cc4c5c(c3)CCCN5CCC4)c(=O)oc2c1`, the absorption maximum runs as follows: (in C1CCCCC1) 487 nm; (in C1COCCO1) 495.5 nm; (in CC#N) 507.5 nm; (in CC(C)=O) 507 nm; (in CCCCCCC) 483 nm; (in CCO) 513 nm. Besides, the absorption maximum was determined as 501 nm (in CCOC(C)=O); 516 nm (in CN(C)C=O); 522.5 nm (in CS(C)=O); 505.5 nm (in Cc1ccccc1); 517 nm (in ClC(Cl)Cl); 514.5 nm (in ClCCl).

Compound `c1ccc(C2c3ccc4ccc5ccccc5c4c3-c3c2ccc2ccc4ccccc4c32)cc1` registered an absorption maximum (in ClCCl) of 401 nm.

With `CCCSc1ccc2n1[B-](F)(F)[N+]1=CC=CC1=C2c1ccccc1`, the absorption maximum by setting is: (in CC#N) 531 nm; (in CCCCCC) 536 nm; (in CCOC(C)=O) 534 nm; (in CO) 536 nm; (in ClCCl) 537 nm.

`CCOC(=O)c1sc2nc(C)c(C)c(C#N)c2c1N` gave an absorption maximum (in c1ccccc1) of 406 nm.

Consider `Cc1cccc2c3ccccc3n(-c3ccc(-c4c(-c5ccccc5)c(C#N)c(C#N)c(-c5ccccc5)c4-c4ccc(-n5c6ccccc6c6cccc(C)c65)cc4)cc3)c12`, for which the absorption maximum (in Cc1ccccc1) is given as 339 nm.

In turn, `COC(=O)c1[nH]c(-c2ccccc2)c2nnc3ccc(OC)cc3c12` displayed an absorption maximum (in ClCCl) of 392 nm.

On to `CC1=[N+]2C(=C(c3ccc(N(C)C)cc3)c3ccc(C)n3[B-]2(F)F)C=C1`, for which the absorption maximum was determined as 508 nm (in C1CCCCC1); 506 nm (in C1CCOC1); 503 nm (in CC#N); 505 nm (in CC(=O)C(C)(C)C); 504 nm (in CC(C)=O); 507 nm (in CCCCCC). Also, the absorption maximum is 505 nm and 504 nm (in CCOC(C)=O); 504 nm and 503 nm (in CO); 509 nm (in Cc1ccccc1); 509 nm (in ClC(Cl)Cl).

For the setting “in C1CCOC1”, `Oc1ccc(C2=N[N+]3=Cc4c(ccc5ccccc45)O[B-]3(c3ccc([B-]45OC(c6ccc(O)cc6)=N[N+]4=Cc4c(ccc6ccccc46)O5)cc3)O2)cc1` (configuration not stated) showed an absorption maximum of 424 nm.

With `N#C/C(=C\c1ccc(C=C(c2ccccc2)c2ccccc2)cc1)c1ccccc1`, under “in C1CCOC1”, the absorption maximum stood at 366 nm.

For `CCCC1(CCC)c2ccccc2-c2ccc(-c3ccc4c(c3)C(CCC)(CCC)c3cc(-c5ccc6c(c5)C(CCC)(CCC)c5ccccc5-6)ccc3-4)cc21`, the absorption maximum (in C1CCCCC1) is on record as 350 nm.

In turn, `CCCC1(CCC)c2cc(-c3ccc(C(C)(C)C)cc3)ccc2-c2ccc(-c3ccc4c(c3)C(CCC)(CCC)c3cc(-c5ccc(C(C)(C)C)cc5)ccc3-4)cc21` displayed an absorption maximum (in C1CCCCC1) of 346 nm.

On to `CCN(CC)c1ccc2cc(C#N)/c(=N\C(=O)C(C)C)oc2c1`, for which the absorption maximum was 422 nm (in CCO) and 428 nm (in ClCCl).

As for `CN(C)c1ccc(-c2nc3ccccc3n2-c2ccccc2)cc1`, the absorption maximum (in CC#N) turned out to be 325 nm.

In the case of `COc1ccc(-c2nc(C(C)=O)c(C)o2)cc1`, the absorption maximum is, setting by setting: (in CC#N) 278 nm; (in CCCCCC) 278 nm; (in CCO) 277 nm; (in CCOC(C)=O) 279 nm; (in CCOCC) 276 nm; (in ClCCl) 277 nm.

`O=c1oc2ccccc2cc1-c1ccc([N+](=O)[O-])cc1` showed an absorption maximum (in C1CCOC1) of 331 nm, an absorption maximum (in CC#N) of 336 nm, an absorption maximum (in CS(C)=O) of 344 nm and an absorption maximum (in ClC(Cl)Cl) of 341 nm.

On to `COc1ccc(-c2c3nc(cc4ccc([nH]4)c(-c4ccc(OC)c(OCCCC(=O)O)c4)c4nc(cc5ccc2[nH]5)CC4)C=C3)cc1OCCCC(=O)O`, for which the absorption maximum (in CS(C)=O) is on record as 644 nm.

Consider `F[B-]1(F)n2c(cc(Br)c2Br)C(c2ccccc2)=C2C=C(Br)C(c3ccc[nH]3)=[N+]21`, for which, under “in ClC(Cl)Cl”, the absorption maximum turned out to be 626 nm.

As for `CCN(CC)c1ccc(-c2ccc(-c3nc4ccccc4c(=O)[nH]3)s2)cc1`, the absorption maximum came out at 404 nm (in CC#N) and 410 nm (in Cc1ccccc1).

In turn, `CCOc1cc2c(cc1/C=C/C(=C(C#N)C#N)c1ccccc1)c1ccccc1n2CC` came in with an absorption maximum (in C1CCOC1) of 462 nm; an absorption maximum (in CC#N) of 462 nm; an absorption maximum (in CCO) of 468 nm; an absorption maximum (in CCOC(C)=O) of 458 nm; an absorption maximum (in CN(C)C=O) of 471 nm; an absorption maximum (in CS(C)=O) of 476 nm. For the same compound, the absorption maximum is on record as 462 nm (in Cc1ccccc1), 470 nm (in ClC(Cl)Cl) and 468 nm (in ClCCl).

For the setting “in ClC(Cl)Cl”, `CCCCCCc1cc2c3cscc3c3cc(CCCCCC)sc3c2s1` returned an absorption maximum of 393 nm.

`C1=CN2C[n+]3ccc4ccccc4c3N=C2c2ccccc21` yielded an absorption maximum (in CO) of 453 nm.

For the compound `CCc1ccc2ccc(-c3ccccc3)nn12`, the absorption maximum (in C1CCCCC1) was found to be 405 nm.

Where the note is “in ClCCl”, `CCCCOc1c(-c2ccc(N(c3ccccc3)c3ccccc3)cc2)cc2cc(-c3ccc(N(c4ccccc4)c4ccccc4)cc3)c(OCCCC)c3c4c(OCCCC)c(-c5ccc(N(c6ccccc6)c6ccccc6)cc5)cc5cc(-c6ccc(N(c7ccccc7)c7ccccc7)cc6)c(OCCCC)c(c1c23)c54` displayed an absorption maximum of 422 nm.

Regarding `Cc1cc(C)c(B(c2ccccc2N(c2ccccc2)c2ccccc2)c2c(C)cc(C)cc2C)c(C)c1`, the absorption maximum (in Cc1ccccc1) worked out at 415 nm.

For `CC1=CC(/C=C/c2ccc([N+](C)(C)C)cc2)=[N+]2C1=C(c1ccc(C#CCO[C@@H]3O[C@H](CO)[C@@H](O)C(O)[C@H]3O)cc1)c1c(C)cc(/C=C/c3ccc([N+](C)(C)C)cc3)n1[B-]2(F)F` (some centres not stated), the absorption maximum (in CC#N) was found to be 618 nm.

The compound `Cc1ccc2nc3cc4c5c(cccc5c3nc2c1)C(c1ccccc1)=C(c1ccccc1)O4` returned an absorption maximum (in ClCCl) of 491 nm.

As to `CCC1=C(C)C2=Cc3c4ccccc4c4n3[B-](c3ccc5ccc6cccc7ccc3c5c67)(Oc3ccccc3-4)[N+]2=C1C` (configuration not stated), the absorption maximum is recorded as 622 nm (in CC#N), 627 nm (in CCCCCC), 630 nm (in Cc1ccccc1) and 628 nm (in ClCCl).

The compound `COc1ccc(-c2c3ccccc3c(C#Cc3ccccc3)c3cc4cc(C)sc4cc23)cc1` registered an absorption maximum (in ClCCl) of 481 nm.

`COc1ccc(C2=[N+]3C(=Nc4c(-c5cc(OC)c(OC)c(OC)c5Br)c(-c5ccc(C(C)(C)C)cc5)c(-c5ccc(OC)cc5)n4[B-]3(F)F)C(c3cc(OC)c(OC)c(OC)c3Br)=C2c2ccc(C(C)(C)C)cc2)cc1` returned an absorption maximum (in Cc1ccccc1) of 706 nm.

The compound `CC[N+]1(CC)CN2C(=N1)C(C(=O)O)=Cc1cc(Oc3ccccc3)ccc12` gave an absorption maximum (in O) of 387 nm.

`C[Si](C)(C)c1ccc(-c2ccc(-c3ccc(-c4ccc(-c5ccc([Si](C)(C)C)cc5)s4)c4nsnc34)s2)cc1` displayed an absorption maximum (in C1CCOC1) of 495 nm.

In the case of `c1ccc(N(c2ccccc2)c2ccc(-c3cnc(-c4ccncc4)s3)cc2)cc1`, the absorption maximum (in CO) is given as 403 nm.

Take `CC(C)[Si](C#Cc1c2nsnc2c(C#C[Si](C(C)C)(C(C)C)C(C)C)c2nc3c4ccccc4c(=O)c4ccccc4c3nc12)(C(C)C)C(C)C`: the absorption maximum (in ClCCl) came out at 561 nm.

`CCN(CC)c1ccc2cc(-c3cc(SC)c(C#N)c(=O)o3)c(=O)oc2c1`: the absorption maximum turned out to be 512 nm (in C1CCOC1); 514 nm (in CC#N); 514 nm (in CC(C)=O); 509 nm (in CCOC(C)=O); 521 nm (in CN(C)C=O); 514 nm (in CO). In addition, the absorption maximum turned out to be 527 nm (in CS(C)=O), 509 nm (in Cc1ccccc1), 517 nm (in ClC(Cl)Cl) and 520 nm (in ClCCl).

`O=S(=O)(c1cccc(N2c3ccccc3Oc3ccccc32)c1)c1cccc(N2c3ccccc3Oc3ccccc32)c1` showed an absorption maximum (in C1CCOC1) of 317 nm, an absorption maximum (in Cc1ccccc1) of 308 nm and an absorption maximum (in ClC(Cl)Cl) of 315 nm.

Consider `Cc1cc(C)c(C2=C3C=c4c(c5ccc(C(C)(C)C)cc5c5cc(C(C)(C)C)ccc45)=[N+]3[B-](F)(F)n3c2cc2c4ccc(C(C)(C)C)cc4c4cc(C(C)(C)C)ccc4c23)c(C)c1`, for which the absorption maximum reads like this: (in C1CCCCC1) 693 nm; (in C1CCOC1) 692 nm; (in CC#N) 686 nm; (in Cc1ccccc1) 698 nm; (in ClCCl) 693 nm.

Regarding `CCCCCCn1c2cc(C=O)sc2c2sc3c(sc4c5sc(C=O)cc5n(CCCCCC)c43)c21`, the absorption maximum (in ClCCl) amounted to 468 nm.

On to `Cc1nc2cc3c4c(cccc4c2o1)C(=O)OC3=O`, for which the absorption maximum (in CCO) was found to be 362 nm.

For the compound `Cc1cc(=O)c2c(ccc3ccc(O)cc32)o1`, the absorption maximum (in CC#N) is listed as 336 nm.

On to `COc1ccc(-c2cc3c(s2)c(C(C)=O)cc(=O)n3C)cc1`, for which the absorption maximum runs as follows: (in CC#N) 412 nm; (in ClCCl) 418 nm.

For the compound `N#CC(C#N)=Cc1ccc(-c2cccc(-c3nc4ccccc4s3)c2O)o1`, the absorption maximum was 421 nm (in CCO), 428 nm (in ClCCl) and 443 nm (in O).

Compound `COc1cccc(-c2nc3sc4ccccc4c3s2)c1` gave an absorption maximum (in CS(C)=O) of 350 nm.

For the compound `c1cc2ccc3sc4ccc5cccc6c(c1)c2c3c4c56`, for the setting “in ClC(Cl)Cl”, the absorption maximum was 412 nm.

On to `O=C1/C(=C\c2ccc(N(c3ccccc3)c3ccccc3)cc2)S(=O)(=O)c2ccccc21`, for which the absorption maximum came to 473 nm (in C1CCOC1); 475 nm (in C1COCCO1); 475 nm (in CC#N); 472 nm (in CC(C)=O); 471 nm (in CCOC(C)=O); 478 nm (in CN(C)C=O). Besides, the absorption maximum worked out at 477 nm (in CO); 482 nm (in CS(C)=O); 485 nm (in Cc1ccccc1); 491 nm (in ClC(Cl)Cl); 485 nm (in ClCCl).
